Test results taken from patent publication US12209102B2, “Heterocyclic compounds and uses thereof” (Kumquat Biosciences Inc., priority 2022, dated 2025).

How the values were obtained:
K-Ras G12S = target: T1, K-Ras G12S (Homo sapiens, UniProt P01116, G12S); experiment: HTRF resonance energy transfer assay, K-Ras G12S / SOS1 interaction; type: biochemical; conditions: HTRF assay of Example 5; read-out: IC50 against K-Ras G12S
T1 construct: made in house; host or cells: E. coli BL21 (DE3)
Procedure, shortened: (§1)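 Read-out: HTRF 665/620 nm ratio (excitation 337 nm) after roughly 10 min or longer incubation, used to derive IC50. Donor anti-GST-Eu on GST-K-Ras; acceptor anti-6His-XL665 on His-hSOS1. Duplicate dose series from 10 μM down to 0.01 μM.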

A549 cells = experiment: Ras cellular assay, growth of cells with K-Ras G12S mutation (CellTiter-Glo); type: cell-based; conditions: Homo sapiens, cell growth, Example 9, G12S mutation, read-out: IC50 against A549 cells
Procedure, shortened: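 A549 cells (K-Ras G12S) in RPMI-1640 with 10% heat-inactivated FBS, seeded e.g. 800 per well in standard or ultra-low-attachment 384-well plates, treated next day with a dilution series (e.g. 10-point, 3-fold). Viability by CellTiter-Glo luminescence about 6 days later; IC50 from four-parameter fit.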

K-Ras G12D = target: T2, K-Ras G12D (Homo sapiens, UniProt P01116, G12D); experiment: HTRF resonance energy transfer assay, K-Ras G12D / SOS1 interaction; type: biochemical; conditions: HTRF assay of Example 5; read-out: IC50 against K-Ras G12D
T2 construct: made in house; host or cells: E. coli BL21 (DE3)
T2 sequence (P01116 1-188 isoform P01116-2 G12D): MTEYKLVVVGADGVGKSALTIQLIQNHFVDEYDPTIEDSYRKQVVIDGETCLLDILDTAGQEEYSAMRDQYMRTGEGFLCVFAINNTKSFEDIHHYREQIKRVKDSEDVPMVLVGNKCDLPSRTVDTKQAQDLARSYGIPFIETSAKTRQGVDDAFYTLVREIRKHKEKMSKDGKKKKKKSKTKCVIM
Procedure, shortened: as §1

K-Ras WT = target: T3, K-Ras WT (Homo sapiens, UniProt P01116); experiment: HTRF resonance energy transfer assay, K-Ras WT / SOS1 interaction; type: biochemical; conditions: HTRF assay of Example 5; read-out: IC50 against K-Ras WT
T3 construct: made in house; host or cells: E. coli BL21 (DE3)
T3 sequence (P01116 1-188 isoform P01116-2): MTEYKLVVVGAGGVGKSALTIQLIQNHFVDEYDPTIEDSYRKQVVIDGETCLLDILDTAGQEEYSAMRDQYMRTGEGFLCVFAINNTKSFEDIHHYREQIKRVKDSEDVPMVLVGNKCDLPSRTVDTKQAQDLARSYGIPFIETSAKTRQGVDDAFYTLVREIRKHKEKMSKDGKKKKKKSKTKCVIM
Procedure, shortened: as §1

K-Ras G12V = target: T4, K-Ras G12V (Homo sapiens, UniProt P01116, G12V); experiment: HTRF resonance energy transfer assay, K-Ras G12V / SOS1 interaction; type: biochemical; conditions: HTRF assay of Example 5; read-out: IC50 against K-Ras G12V
T4 construct: made in house; host or cells: E. coli BL21 (DE3)
T4 sequence (P01116 1-188 isoform P01116-2 G12V): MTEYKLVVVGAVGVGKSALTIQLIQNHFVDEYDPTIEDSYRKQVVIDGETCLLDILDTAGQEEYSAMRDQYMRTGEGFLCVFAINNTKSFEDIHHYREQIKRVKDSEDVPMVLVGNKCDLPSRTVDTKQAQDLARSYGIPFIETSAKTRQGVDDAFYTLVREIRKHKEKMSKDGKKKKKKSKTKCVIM
Procedure, shortened: as §1

SW620 cells = experiment: Ras cellular assay, growth of cells with K-Ras G12V mutation (CellTiter-Glo); type: cell-based; conditions: Homo sapiens, SW-620; cell growth, Example 9, G12V mutation; read-out: IC50 against SW620 cells
Procedure, shortened: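 SW620 (K-Ras G12V) cells, e.g. 800/well in RPMI-1640 with 10% heat-inactivated FBS on standard or ultra-low attachment plates, were dosed the day after plating with e.g. a 10-point 3-fold series. Viability by CellTiter-Glo luminescence about 6 days later; IC50 from four-parameter fit.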

T1 sequence (P01116 1-188 isoform P01116-2 G12S): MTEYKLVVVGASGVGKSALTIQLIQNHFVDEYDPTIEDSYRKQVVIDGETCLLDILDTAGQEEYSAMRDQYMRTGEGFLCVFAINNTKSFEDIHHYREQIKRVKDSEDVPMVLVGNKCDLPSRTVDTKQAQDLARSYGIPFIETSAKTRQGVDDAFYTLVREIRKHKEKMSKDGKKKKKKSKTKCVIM

IC50 (K-Ras G12S) [nM] | IC50 (A549 cells) [nM] | IC50 (K-Ras G12D) [nM] | IC50 (K-Ras WT) [nM] | IC50 (K-Ras G12V) [nM] | IC50 (SW620 cells) [nM] | Compound
< 100 | < 5000 | < 100 | < 100 | < 100 | < 5000 | COC1CC(N2CCOc3c(Cl)c(-c4ccc(F)c5sc(N)c(C#N)c45)c(F)c4nc(OC[C@@]56CCCN5C[C@H](F)C6)nc2c34)C1 (stereo partly drawn) [Compound 660, 2-amino-4-(8-chloro-10-fluoro-2-(((2R,7aS)-2-fluorotetrahydro-1H-pyrrolizin-7a(5H)-yl)methoxy)-4-(3-methoxycyclobutyl)-5,6-dihydro-4H-[1,4]oxazepino[5,6,7-de]quinazolin-9-yl)-7-fluorobenzo[b]thiophene-3-carbonitrile]
< 100 | < 5000 | < 100 | < 100 | < 100 | < 5000 | CNC(=O)C1CCCC(N2CCOc3c(Cl)c(-c4ccc(F)c5sc(N)c(C#N)c45)c(F)c4nc(OC[C@@]56CCCN5C[C@H](F)C6)nc2c34)C1 (stereo partly drawn) [Compound 841, 3-(9-(2-amino-3-cyano-7-fluorobenzo[b]thiophen-4-yl)-8-chloro-10-fluoro-2-(((2R,7aS)-2-fluorotetrahydro-1H-pyrrolizin-7a(5H)-yl)methoxy)-5,6-dihydro-4H-[1,4]oxazepino[5,6,7-de]quinazolin-4-yl)-N-methylcyclohexane-1-carboxamide]
< 100 | < 5000 | < 100 | < 100 | < 100 | < 5000 | C[C@H](Oc1nc2c3c(c(Cl)c(-c4ccc(F)c5sc(N)c(C#N)c45)c(F)c3n1)OCCN2C1CCCN(C(=O)C2CCC2)C1)[C@@H]1CCCN1C (stereo partly drawn) [Compound 862, 2-amino-4-(8-chloro-4-(1-(cyclobutanecarbonyl)piperidin-3-yl)-10-fluoro-2-((S)-1-((S)-1-methylpyrrolidin-2-yl)ethoxy)-5,6-dihydro-4H-[1,4]oxazepino[5,6,7-de]quinazolin-9-yl)-7-fluorobenzo[b]thiophene-3-carbonitrile]
< 100 | < 5000 | < 100 | < 100 | < 100 | < 5000 | N#Cc1c(N)sc2c(F)ccc(-c3c(Cl)c4c5c(nc(OC[C@@]67CCCN6C[C@H](F)C7)nc5c3F)N(C3CCC5(C3)CN(C(=O)C3CC3)C5)CCO4)c12 (stereo partly drawn) [Compound 1011, 2-amino-4-(8-chloro-4-(2-(cyclopropanecarbonyl)-2-azaspiro[3.4]octan-6-yl)-10-fluoro-2-(((2R,7aS)-2-fluorotetrahydro-1H-pyrrolizin-7a(5H)-yl)methoxy)-5,6-dihydro-4H-[1,4]oxazepino[5,6,7-de]quinazolin-9-yl)-7-fluorobenzo[b]thiophene-3-carbonitrile]
< 100 | < 5000 | < 100 | < 100 | < 100 | < 5000 | CC1Oc2c(Cl)c(-c3ccc(F)c4sc(N)c(C#N)c34)c(F)c3nc(OC[C@@]45CCCN4C[C@H](F)C5)nc(c23)N(CC(F)F)C1C(C)(C)O (stereo partly drawn) [Compound 655, 2-amino-4-(8-chloro-4-(2,2-difluoroethyl)-10-fluoro-2-(((2R,7aS)-2-fluorotetrahydro-1H-pyrrolizin-7a(5H)-yl)methoxy)-5-(2-hydroxypropan-2-yl)-6-methyl-5,6-dihydro-4H-[1,4]oxazepino[5,6,7-de]quinazolin-9-yl)-7-fluorobenzo[b]thiophene-3-carbonitrile]
< 100 | < 5000 | < 100 | < 100 | < 100 | < 5000 | N#CCC(=O)N1CCC(N2CCOc3c(Cl)c(-c4ccc(F)c5sc(N)c(C#N)c45)c(F)c4nc(OC[C@@]56CCCN5C[C@H](F)C6)nc2c34)C1 (stereo partly drawn) [Compound 626, 2-amino-4-(8-chloro-4-(1-(2-cyanoacetyl)pyrrolidin-3-yl)-10-fluoro-2-(((2R,7aS)-2-fluorotetrahydro-1H-pyrrolizin-7a(5H)-yl)methoxy)-5,6-dihydro-4H-[1,4]oxazepino[5,6,7-de]quinazolin-9-yl)-7-fluorobenzo[b]thiophene-3-carbonitrile]
< 100 | < 5000 | < 100 | < 100 | < 100 | < 5000 | N#Cc1c(N)sc2c(F)ccc(-c3c(Cl)c4c5c(nc(OC[C@@]67CCCN6C[C@H](F)C7)nc5c3F)N(C3CCC(NC(=O)C(F)F)C3)CCO4)c12 (stereo partly drawn) [Compound 673, N-(3-(9-(2-amino-3-cyano-7-fluorobenzo[b]thiophen-4-yl)-8-chloro-10-fluoro-2-(((2R,7aS)-2-fluorotetrahydro-1H-pyrrolizin-7a(5H)-yl)methoxy)-5,6-dihydro-4H-[1,4]oxazepino[5,6,7-de]quinazolin-4-yl)cyclopentyl)-2,2-difluoroacetamide]
< 100 | < 5000 | < 100 | < 100 | < 100 | < 5000 | N#Cc1c(N)sc2c(F)ccc(-c3c(Cl)c4c5c(nc(OC[C@@]67CCCN6C[C@H](F)C7)nc5c3F)N(C3CCCCC3)CCO4)c12 [Compound 1116, 2-amino-4-(8-chloro-4-cyclohexyl-10-fluoro-2-(((2R,7aS)-2-fluorotetrahydro-1H-pyrrolizin-7a(5H)-yl)methoxy)-5,6-dihydro-4H-[1,4]oxazepino[5,6,7-de]quinazolin-9-yl)-7-fluorobenzo[b]thiophene-3-carbonitrile]
< 100 | < 5000 | < 100 | < 100 | < 100 | < 5000 | CC1(C)CC(N2CCOc3c(Cl)c(-c4ccc(F)c5sc(N)c(C#N)c45)c(F)c4nc(OC[C@@]56CCCN5C[C@H](F)C6)nc2c34)CO1 (stereo partly drawn) [Compound 1071, 2-amino-4-(8-chloro-4-(5,5-dimethyltetrahydrofuran-3-yl)-10-fluoro-2-(((2R,7aS)-2-fluorotetrahydro-1H-pyrrolizin-7a(5H)-yl)methoxy)-5,6-dihydro-4H-[1,4]oxazepino[5,6,7-de]quinazolin-9-yl)-7-fluorobenzo[b]thiophene-3-carbonitrile]
< 100 | < 5000 | < 100 | < 100 | < 100 | < 5000 | N#Cc1c(N)sc2c(F)ccc(-c3c(Cl)c4c5c(nc(OC[C@@]67CCCN6C[C@H](F)C7)nc5c3F)N(C3CCC5(C3)CN(C(=O)C3CC3(F)F)C5)CCO4)c12 (stereo partly drawn) [Compound 746, 2-amino-4-(8-chloro-4-(2-(2,2-difluorocyclopropane-1-carbonyl)-2-azaspiro[3.4]octan-6-yl)-10-fluoro-2-(((2R,7aS)-2-fluorotetrahydro-1H-pyrrolizin-7a(5H)-yl)methoxy)-5,6-dihydro-4H-[1,4]oxazepino[5,6,7-de]quinazolin-9-yl)-7-fluorobenzo[b]thiophene-3-carbonitrile]
< 100 | < 5000 | < 100 | < 100 | < 100 | < 5000 | C[C@H](Oc1nc2c3c(c(Cl)c(-c4ccc(F)c5sc(N)c(C#N)c45)c(F)c3n1)OCCN2C1CCN(C(=O)c2ccnn2C)CC1)[C@@H]1CCCN1C [Compound 1012, 2-amino-4-(8-chloro-10-fluoro-4-(1-(1-methyl-1H-pyrazole-5-carbonyl)piperidin-4-yl)-2-((S)-1-((S)-1-methylpyrrolidin-2-yl)ethoxy)-5,6-dihydro-4H-[1,4]oxazepino[5,6,7-de]quinazolin-9-yl)-7-fluorobenzo[b]thiophene-3-carbonitrile]
< 100 | < 5000 | < 100 | < 100 | < 100 | < 5000 | CC1COc2c(Cl)c(-c3ccc(F)c4sc(N)c(C#N)c34)c(F)c3nc(OC[C@@]45CCCN4C[C@H](F)C5)nc(c23)N(C)[C@@H]1C (stereo partly drawn) [Compound 1206, 2-amino-4-((5R)-9-chloro-11-fluoro-2-(((2R,7aS)-2-fluorotetrahydro-1H-pyrrolizin-7a(5H)-yl)methoxy)-4,5,6-trimethyl-4,5,6,7-tetrahydro-[1,5]oxazocino[4,3,2-de]quinazolin-10-yl)-7-fluorobenzo[b]thiophene-3-carbonitrile]

Compound | IC50 (K-Ras G12S) [nM] | IC50 (A549 cells) [nM] | IC50 (K-Ras G12D) [nM] | IC50 (K-Ras WT) [nM] | IC50 (K-Ras G12V) [nM] | IC50 (SW620 cells) [nM]
N#Cc1c(N)sc2c(F)ccc(-c3c(Cl)c4c5c(nc(OC[C@@]67CCCN6C[C@H](F)C7)nc5c3F)N(C3CC5CCC3N5)CCO4)c12 (stereo partly drawn) [Compound 733, 4-(4-(7-azabicyclo[2.2.1]heptan-2-yl)-8-chloro-10-fluoro-2-(((2R,7aS)-2-fluorotetrahydro-1H-pyrrolizin-7a(5H)-yl)methoxy)-5,6-dihydro-4H-[1,4]oxazepino[5,6,7-de]quinazolin-9-yl)-2-amino-7-fluorobenzo[b]thiophene-3-carbonitrile] | < 100 | < 5000 | < 100 | < 100 | < 100 | < 5000
